Values joined by “and” are separate entries in the source; they are usually repeats but may differ in a detail not shown here. Equal values may be shown once. Where a name gives a salt, the structure may show the parent alone. Read-outs that look alike come from different tables or passages of the source. Blank lines part the entries; values can stand above or below the compound they belong to.
Tests used:
[1] = Solubility in fasted-state simulated colonic fluid (FaSSCoF); format: physicochemical; conditions: pH 6.5, 25° C., 24 h; for solubility thermodynamic at 24 h: fasted-state simulated colonic fluid (FaSSCoF), 25 °C, pH 6.5, fassgf or other biorelevant, thermodynamic from solid
Protocol: The solubility of the compound of the invention in FaSSCoF at pH 6.5 is determined using a modification of a previously-reported procedure (Vertzoni, M., et al. Pharm. Res. 2010, 27, 2187-2196). In place of the bile salt extract employed in the original procedure (which extract is no longer available), the modified procedure uses a mixture of sodium taurochlorate (0.15 g), glycocholic acid (0.15 g), ursodeoxycholic acid (0.05 g), cholic acid (0.05 g), and glycodeoxycholic acid (0.05 g). These five bile acids are ground together with a mortar and pestle to produce a fine white powder that is incorporated into the FaSSCoF, as outlined below.
FaSSCoF medium: Tris(hydroxymethyl)aminomethane (Tris; 0.275 g) and maleic acid (0.44 g) are dissolved in water (35 mL) to give a solution whose pH is adjusted to 6.5 by treatment with 0.5M NaOH (ca. 12 mL). The solution is then made up to 50 mL with water. A portion of this Tris/maleate buffer solution (ca. 25 mL) is added to a 0.5 L round-bottomed flask, before being treated with 0.00565 g of the bile acid mixture described above. Solutions of phosphatidylcholine (0.0111 g) in DCM (0.15 mL) and palmitic acid (0.0013 g) in DCM (0.15 mL) are added, then the organic solvent is evaporated off under reduced pressure at 40° C. until a clear solution, with no perceptible DCM odour, is achieved. The volume of the evaporated solution is adjusted to 50 mL by addition of the remainder of Tris/maleate buffer, then BSA (0.115 g) is added, before being dissolved by gentle agitation.
Solubility Determination: Test compounds are suspended in the pH 6.5 FaSSCoF medium to give a maximum final concentration of 2-10 mg/mL. The suspensions are equilibrated at 25° C. for 24 h, before being filtered through a glass fibre C filter. The filtrates are then diluted as appropriate for injection and quantification by HPLC with reference to a standard. Different volumes of the standard, diluted and undiluted sample solutions are injected and the solubilities are calculated using the peak areas determined by integration of the peak found at the same retention time as the principal peak in the standard injection.

[2] = Stability of pharmaceutical formulations (1 mg/mL solutions); format: physicochemical; conditions: for Original Purity: 1 mg/mL in pH 7.2 phosphate buffer, 4.5% mannitol, 3% polyoxyl 40 stearate, before storage; for Osmolality / pH: 1 mg/mL stock solution; for Purity at week n = 1 / Purity at week n = 2 / Purity at week n = 4: 1 mg/mL solution
Protocol: The samples were sonicated to achieve clear solutions having the following properties: Osmolality (mOsm/kg): 310 (Na), 314 (HCl); pH: 7.00 (Na), 7.05 (HCl). 0.5 mL of the stock solutions were diluted to 1 mL with 20% DMSO in water & injected for purity analysis by HPLC. The remaining stock solutions were then split into aliquots of 0.5 mL in HPLC vials, and stored at various conditions in duplicate. Samples were stored at 5 and 25° C., before being analysed by HPLC at 1, 2 and 4 weeks. Separate samples were stored at 40° C. and analysed at 4 weeks.

[3] = Systemic pharmacokinetics and total colon tissue distribution after single oral administration; format: in vivo, mouse; conditions: male, C57BL/6, mouse, mice, oral 5 mg/kg, compound 1 measured
Protocol: Studies were conducted by Sai Life Sciences (Hinjewadi, Pune, India) to investigate the systemic pharmacokinetics and total colon tissue distribution of the compound of the invention. In particular, pharmacokinetic studies were carried out in male C57BL/6 mice following a single oral administration of the compound.

non-mutant kinases = format: binding; conditions: for number of individual kinase hits, S(1): % Ctrl <1; for number of individual kinase hits, S(10): % Ctrl <10; for number of individual kinase hits, S(35): % Ctrl <35
From the text: These assays may be conducted by DiscoverX (formerly Ambit; San Diego, Calif.).

Jurkat cells = test: Cell cytotoxicity assay (assay r); format: cell-based, human; conditions: 24 hours
Protocol: 1×10^5 Jurkat cells (immortalised human T lymphocytes) are added to the appropriate number of wells of a 96 well plate in 100 μL of media (RPMI supplemented with 10% foetal bovine serum). 1 μL of DMSO control (final concentration 1.0% v/v) or test compound (final concentration 20, 5 or 1 μg/mL) is added to the wells and incubated at 37° C., 5% CO2. After 24 hours, the plate is centrifuged at 1200 rpm for 3 minutes and the supernatant discarded. Cells are then resuspended in 150 μL (final concentration 7.5 μg/mL) of propidium iodide (PI) in PBS and incubated at 37° C., 5% CO2 for 15 minutes. After 15 minutes, cells are analysed by flow cytometry (BD accuri) using the FL3 window. The % viability is calculated as the % of cells that are PI negative in the test wells normalised to the DMSO control.

[4] = read-out: pH 6.5 FaSSCoF Solubility Run 1
[5] = listed as Example 1, hydrochloride salt
[6] = stored at 5 ° C., listed as Example 1, hydrochloride salt
[7] = stored at 25 ° C., listed as Example 1, hydrochloride salt
[8] = plasma, read-out: Mean plasma concentration
[9] = total colon, read-out: Mean total colon level
[10] = listed as Example 1, sodium salt
[11] = stored at 5 ° C., listed as Example 1, sodium salt
[12] = stored at 25 ° C., listed as Example 1, sodium salt

SMILES: COc1cc(Nc2cc(Oc3ccc(NC(=O)Nc4cc(C(C)(C)C)cc(NS(C)(=O)=O)c4OC)c4ccccc34)ccn2)ccc1C(=O)O [1 (hydrochloride salt), 4-((4-((4-(3-(5-(tert-Butyl)-2-methoxy-3-(methylsulfonamido)phenyl)ureido)naphthalen-1-yl)oxy)pyridin-2-yl)amino)-2-methoxybenzoic acid]
- solubility thermodynamic at 24 h [1, 4]: 16 µg/mL
- pH 6.5 FaSSCoF Solubility Run 2 [1]: 0.015 mg/mL
- Original Purity [2, 5]: 98.1%
- Osmolality [2, 5]: 314 mOsm/kg
- pH [2, 5]: 7.05
- Purity at week n = 1 [2, 6]: 98.2%
- Purity at week n = 2 [2, 6]: 98.1% and 98.0%
- Purity at week n = 4 [2, 6]: 97.9% and 98.0%
- Purity at week n = 1 [2, 7]: 98.0%
- Purity at week n = 2 [2, 7]: 97.7% and 97.6%
- Purity at week n = 4 [2, 7]: 97.2% and 97.4%
- Purity at week n = 4 ([2]; stored at 40 ° C., listed as Example 1, hydrochloride salt): 79.2% and 80.4%

SMILES: COc1cc(Nc2cc(Oc3ccc(NC(=O)Nc4cc(C(C)(C)C)cc(NS(C)(=O)=O)c4OC)c4ccccc34)ccn2)ccc1C(=O)O [1 (sodium salt), 4-((4-((4-(3-(5-(tert-Butyl)-2-methoxy-3-(methylsulfonamido)phenyl)ureido)naphthalen-1-yl)oxy)pyridin-2-yl)amino)-2-methoxybenzoic acid]
- solubility thermodynamic at 24 h [1, 4]: 31 µg/mL
- pH 6.5 FaSSCoF Solubility Run 2 [1]: 0.032 mg/mL
- pH 6.5 FaSSCoF Solubility Run 3 [1]: 0.020 mg/mL
- pH 6.5 FaSSCoF Solubility Run 4 [1]: 0.025 mg/mL
- concentration at 0.5 h [3, 8]: 44.9 ng/mL
- concentration at 1 h [3, 8]: 49.2 ng/mL
- concentration at 2 h [3, 8]: 13 ng/mL
- concentration at 4 h [3, 8]: 5.2 ng/mL
- concentration at 6 h [3, 8]: 1.9 ng/mL
- concentration at 8 h [3, 8]: 0.6 ng/mL
- concentration at 12 h [3, 8]: 5.3 ng/mL
- concentration at 24 h [3, 8]: 0 ng/mL
- concentration at 0.5 h [3, 9]: 4.3 ng/g
- concentration at 1 h [3, 9]: 9.3 ng/g
- concentration at 2 h [3, 9]: 52.4 ng/g
- concentration at 4 h [3, 9]: 10400 ng/g
- concentration at 6 h [3, 9]: 4050 ng/g
- concentration at 8 h [3, 9]: 12900 ng/g
- concentration at 12 h [3, 9]: 535 ng/g
- concentration at 24 h [3, 9]: 41.4 ng/g
- Original Purity [2, 10]: 98.6% and 98.5%
- Osmolality [2, 10]: 310 mOsm/kg
- pH [2, 10]: 7.00
- Purity at week n = 1 [2, 11]: 98.2% and 98.4%
- Purity at week n = 2 [2, 11]: 98.4% and 98.5%
- Purity at week n = 4 [2, 11]: 98.3% and 98.4%
- Purity at week n = 1 [2, 12]: 98.4% and 98.5%
- Purity at week n = 2 [2, 12]: 98.1%
- Purity at week n = 4 [2, 12]: 97.6%
- Purity at week n = 4 ([2]; stored at 40 ° C., listed as Example 1, sodium salt): 76.0% and 73.7%

- solubility thermodynamic at 24 h [1, 4]: < 1 µg/mL
- solubility thermodynamic at 24 h ([1]; read-out: pH 6.5 FaSSCoF Solubility Run 2): < 1 µg/mL
SMILES: C#Cc1cc(Nc2nccc(Oc3ccc(NC(=O)Nc4cc(C(C)(C)C)nn4-c4ccc(C)cc4)c4ccccc34)n2)cc(C(=O)NCCOCCOCCOC)c1 [Reference Compound A, 3-((4-((4-(3-(3-(tert-butyl)-1-(p-tolyl)-1H-pyrazol-5-yl)ureido)naphthalen-1-yl)oxy)pyrimidin-2-yl)amino)-5-ethynyl-N-(2-(2-(2-methoxyethoxy)ethoxy)ethyl)benzamide, reference compound]

SMILES: COCC(=O)Nc1cc(Oc2ccc(NC(=O)Nc3cc(C(C)(C)C)nn3-c3ccc(C)cc3)c3ccccc23)ccn1 [Reference Compound, reference compound]
- number of individual kinase hits, S(1) (non-mutant kinases; 50 nM): 7
- number of individual kinase hits, S(10) (non-mutant kinases; 50 nM): 32
- number of individual kinase hits, S(35) (non-mutant kinases; 50 nM): 67
- number of individual kinase hits, S(1) (non-mutant kinases; 500 nM): 45
- number of individual kinase hits, S(10) (non-mutant kinases; 500 nM): 105
- number of individual kinase hits, S(35) (non-mutant kinases; 500 nM): 143
- % Viability at 1 μg/mL (Jurkat cells; 1 μg/mL): 23.5%
- % Viability at 5 μg/mL (Jurkat cells; 5 μg/mL): 18.9%
- % Viability at 20 μg/mL (Jurkat cells; 20 μg/mL): 17.3%

Source: patent US9499486B2, “Kinase inhibitor” (RESPIVERT LIMITED, priority 2014, dated 2016)
